Reference: publication PMC8694051 (Proceedings of the National Academy of Sciences of the …, 2021)
Residues, ends and D or L forms follow the SMILES beside them.

Legend:
HGFA = target: T1, HGFA (Homo sapiens, UniProt Q04756); assay: HGFA enzyme inhibition (published assays); type: biochemical
T1 sequence (Q04756 373-655): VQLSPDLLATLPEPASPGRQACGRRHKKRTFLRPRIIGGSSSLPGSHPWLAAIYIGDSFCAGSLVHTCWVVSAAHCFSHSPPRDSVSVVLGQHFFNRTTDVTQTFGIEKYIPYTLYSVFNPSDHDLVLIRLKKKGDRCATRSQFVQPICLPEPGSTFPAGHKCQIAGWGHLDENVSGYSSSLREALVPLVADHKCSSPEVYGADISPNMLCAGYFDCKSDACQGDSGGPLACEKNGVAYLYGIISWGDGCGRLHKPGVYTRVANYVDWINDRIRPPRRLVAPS

Matriptase = target: T2, Matriptase (Homo sapiens, UniProt Q9Y5Y6); assay: Matriptase enzyme inhibition (published assays); type: biochemical
T2 sequence (Q9Y5Y6 1-855): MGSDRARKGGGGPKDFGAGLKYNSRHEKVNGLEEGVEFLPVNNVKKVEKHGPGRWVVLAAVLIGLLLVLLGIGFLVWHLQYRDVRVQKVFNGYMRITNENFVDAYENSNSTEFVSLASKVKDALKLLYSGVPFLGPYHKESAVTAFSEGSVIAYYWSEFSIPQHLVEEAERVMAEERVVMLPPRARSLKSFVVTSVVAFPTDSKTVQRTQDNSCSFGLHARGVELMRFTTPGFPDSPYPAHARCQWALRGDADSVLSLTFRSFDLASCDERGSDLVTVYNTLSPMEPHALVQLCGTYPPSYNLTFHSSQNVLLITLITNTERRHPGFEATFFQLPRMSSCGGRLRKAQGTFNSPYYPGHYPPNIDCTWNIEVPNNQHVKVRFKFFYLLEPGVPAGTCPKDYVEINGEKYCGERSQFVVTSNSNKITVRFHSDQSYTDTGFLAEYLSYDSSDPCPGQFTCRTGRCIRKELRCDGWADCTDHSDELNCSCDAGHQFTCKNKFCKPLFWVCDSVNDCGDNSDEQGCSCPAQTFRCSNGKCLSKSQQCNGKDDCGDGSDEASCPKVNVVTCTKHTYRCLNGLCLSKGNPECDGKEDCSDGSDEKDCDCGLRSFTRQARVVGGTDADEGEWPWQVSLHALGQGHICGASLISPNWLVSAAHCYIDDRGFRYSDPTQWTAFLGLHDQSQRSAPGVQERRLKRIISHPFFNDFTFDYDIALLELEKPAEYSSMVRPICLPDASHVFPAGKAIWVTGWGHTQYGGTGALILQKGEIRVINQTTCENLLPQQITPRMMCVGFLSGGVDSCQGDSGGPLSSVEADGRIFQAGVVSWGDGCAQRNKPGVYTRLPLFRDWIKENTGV

Factor Xa = Factor Xa (Homo sapiens, UniProt P00742); assay: Factor Xa enzyme inhibition (published assays); type: biochemical
Sequence of Factor Xa (P00742 235-488 limits assumed): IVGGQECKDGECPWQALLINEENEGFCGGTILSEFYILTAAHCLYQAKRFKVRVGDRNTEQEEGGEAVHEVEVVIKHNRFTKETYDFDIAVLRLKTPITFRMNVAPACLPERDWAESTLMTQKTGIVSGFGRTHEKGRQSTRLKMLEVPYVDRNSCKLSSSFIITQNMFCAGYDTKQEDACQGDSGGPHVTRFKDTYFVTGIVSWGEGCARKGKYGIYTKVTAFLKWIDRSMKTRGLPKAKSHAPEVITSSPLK
Sequence of Factor Xa (P00742 41-179 partner limits assumed): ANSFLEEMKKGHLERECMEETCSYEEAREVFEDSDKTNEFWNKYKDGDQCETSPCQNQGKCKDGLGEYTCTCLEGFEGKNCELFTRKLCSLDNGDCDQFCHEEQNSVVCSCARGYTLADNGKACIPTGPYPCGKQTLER

[1] = test system: VSV-SARS-CoV-2-Spike protein Pseudotype virus; assay: microbe, parasite or virus in culture; type: cell-based; settings: Vesicular stomatitis virus, Calu-3, read-out: VSV-SARS-CoV-2 Calu-3 EC50 (nM)
VSV-MERS = assay: microbe, parasite or virus in culture; type: cell-based, MERS-CoV; settings: Middle East respiratory syndrome-related coronavirus, Calu-3, read-out: MERS VSV pseudotype Calu-3 EC50 (nM)
Cathepsin G = Cathepsin G (Homo sapiens, UniProt P08311); assay: Protease profiling panel, 10-dose IC50; type: biochemical
Sequence of Cathepsin G (P08311 21-255, species assumed): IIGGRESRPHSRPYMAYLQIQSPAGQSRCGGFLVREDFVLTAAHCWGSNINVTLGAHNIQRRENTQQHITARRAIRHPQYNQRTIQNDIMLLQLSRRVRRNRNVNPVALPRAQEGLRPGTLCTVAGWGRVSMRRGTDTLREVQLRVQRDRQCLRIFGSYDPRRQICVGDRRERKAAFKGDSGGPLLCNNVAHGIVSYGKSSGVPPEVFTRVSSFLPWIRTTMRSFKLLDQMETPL

Chymase = Chymase (Homo sapiens, UniProt P23946); assay: Protease profiling panel, 10-dose IC50; type: biochemical
Sequence of Chymase (P23946 22-247, species assumed): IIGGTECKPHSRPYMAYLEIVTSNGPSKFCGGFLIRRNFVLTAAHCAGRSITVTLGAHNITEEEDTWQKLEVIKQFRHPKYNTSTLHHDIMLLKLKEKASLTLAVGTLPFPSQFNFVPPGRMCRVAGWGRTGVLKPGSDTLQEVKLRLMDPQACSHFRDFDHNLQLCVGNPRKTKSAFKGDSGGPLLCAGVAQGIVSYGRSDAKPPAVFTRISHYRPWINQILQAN

Thrombin = Thrombin (Homo sapiens, UniProt P00734); assay: Thrombin enzyme inhibition (published assays); type: biochemical
wild-type SARS-CoV-2 = assay: microbe, parasite or virus in culture; type: cell-based; settings: Severe acute respiratory syndrome coronavirus 2, Calu-3, 72 h, read-out: SARS-CoV-2 Wild-type Calu-3 IC50 (nM)
in vitro [2] = settings: mouse, plasma
in vitro [3] = settings: human, plasma
FVIIa = FVIIa (Homo sapiens, UniProt P08709); assay: Protease profiling panel, 10-dose IC50; type: biochemical
Sequence of FVIIa (P08709 213-466 limits assumed): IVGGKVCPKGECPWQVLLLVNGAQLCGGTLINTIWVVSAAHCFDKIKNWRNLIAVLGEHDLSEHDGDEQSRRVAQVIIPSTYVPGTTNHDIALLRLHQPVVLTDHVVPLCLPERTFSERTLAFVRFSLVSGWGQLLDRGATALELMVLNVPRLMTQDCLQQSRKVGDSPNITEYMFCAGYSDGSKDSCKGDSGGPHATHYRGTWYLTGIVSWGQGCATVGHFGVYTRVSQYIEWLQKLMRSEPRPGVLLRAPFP
Sequence of FVIIa (P08709 61-212 partner limits assumed): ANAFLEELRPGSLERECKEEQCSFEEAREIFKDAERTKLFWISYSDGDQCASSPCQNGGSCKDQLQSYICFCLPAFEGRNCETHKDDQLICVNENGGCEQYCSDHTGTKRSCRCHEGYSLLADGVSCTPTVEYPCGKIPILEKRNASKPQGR

Caspase 14 = Caspase 14 (Homo sapiens, UniProt P31944); assay: Protease profiling panel, 10-dose IC50; type: biochemical
Sequence of Caspase 14 (P31944 6-242, species assumed): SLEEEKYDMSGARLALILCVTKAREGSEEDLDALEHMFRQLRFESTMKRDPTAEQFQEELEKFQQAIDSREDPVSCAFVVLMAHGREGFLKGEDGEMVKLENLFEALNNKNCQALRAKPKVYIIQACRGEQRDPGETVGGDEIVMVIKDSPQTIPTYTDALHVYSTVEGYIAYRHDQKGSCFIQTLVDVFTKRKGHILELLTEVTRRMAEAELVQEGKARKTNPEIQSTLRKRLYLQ

Molecule `CN(C)C(=O)COC(=O)Cc1ccc(OC(=O)c2ccc(NC(=N)N)cc2)cc1` [Camostat, reference compound] has an IC50 (HGFA) of over 20 µM, an IC50 (Matriptase) of 0.007 µM and an IC50 (Factor Xa) of over 20 µM. For the same molecule, the EC50 [1] was 83 nM and the EC50 (VSV-MERS) was 5 nM.
`CC(C)C[C@H](NC(=O)[C@@H](NC(=O)N[C@@H](Cc1ccccc1)C(=O)O)[C@@H]1CCN=C(N)N1)C(=O)N[C@H](C=O)Cc1ccccc1` [Chymostatin] showed an IC50 (Cathepsin G) of 4.04 µM and an IC50 (Chymase) of 0.0101 µM.
`CC(=O)N[C@@H](CCC(N)=O)C(=O)N[C@@H](Cc1ccccc1)C(=O)N[C@@H](CCCNC(=N)N)C(=O)c1nc2ccccc2s1` [Compound 6, Ac-QFR-kbt] showed an IC50 (HGFA) of 0.014 µM, an IC50 (Thrombin) of over 20 µM and an IC50 (Factor Xa) of 0.0014 µM. It also gave an IC50 (wild-type SARS-CoV-2) of 105 nM, a half-life (in vitro [2]) of over 4.82 h and a half-life (in vitro [3]) of over 4.82 h.
`N=C(N)c1ccc2nc(-c3cc(CC(=O)N[C@@H](CC(=O)O)C(=O)O)cc(-c4cc(S(N)(=O)=O)ccc4O)c3O)[nH]c2c1` [PCI 27483] showed an IC50 (FVIIa) of 0.0575 µM.
In the case of `CC(=O)N[C@@H](Cc1c[nH]c2ccccc12)C(=O)N[C@@H](CCC(=O)O)C(=O)N[C@@H](Cc1cnc[nH]1)C(=O)N[C@H](C=O)CC(=O)O` [WEHD-CHO] (Ac-WEHD-aldehyde), the IC50 (Caspase 14) is reported as 0.0682 µM.
